Each structure is given as a SMILES string. Where two headings read alike, the source gives them in different places.

What all share (assay type): cell-based
One assay has as its system HTT mRNA. The assay can be described thus: Splicing RT-qPCR assay, HTT canonical (CJ) and alternative (AJ) junction mRNA. The note with it: Homo sapiens; for EC50: AC50 = 50% response in AJ mRNA increase. Put shortly: (§1)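 A673/K562; 11-pt 3-fold dil., top 10 uM final, ≤0.25% DMSO; 24 h, 37 °C, 5% CO2. Lysis, then RT-qPCR of CJ/AJ isoforms, ≥duplicate. ΔCt vs housekeeper (GAPDH/GUSB/PPIA), ΔΔCt vs DMSO, RQ = 2^(−ΔΔCt), expressed as % response.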

For the next assay, the system named is MYB mRNA. The assay can be described thus: Splicing RT-qPCR assay, MYB canonical (CJ) and alternative (AJ) junction mRNA. The note with it: Homo sapiens; for EC50: AC50 = 50% response in AJ mRNA increase. Summed up:
as §1

The next assay has as its system Target C mRNA. Nature of the assay: Splicing RT-qPCR gene panel, Target C canonical junction (CJ) mRNA. The note with it: Homo sapiens; Table 8; larger gene panel, decrease in CJ mRNA levels. Summed up: as §1
Another assay deals with SMN2 mRNA. The assay can be described thus: Splicing RT-qPCR gene panel, SMN2 canonical junction (CJ) mRNA. Particulars: Homo sapiens; Table 8; larger gene panel, decrease in CJ mRNA levels. Put shortly:
as §1

The mark [1] stands for this setting: Table 7, RT-qPCR, A673 or K562 cells, 24 hours treatment.
Where [2] appears, read: Table 7, IC50 = 50% response in CJ mRNA decrease, RT-qPCR, A673 or K562 cells, 24 hours treatment, read-out: HTT CJ.
The mark [3] stands for this setting: Table 8, larger gene panel, decrease in CJ mRNA levels, read-out: HTT CJ IC50.
[4] abbreviates: Table 7, IC50 = 50% response in CJ mRNA decrease, RT-qPCR, A673 or K562 cells, 24 hours treatment, read-out: MYB CJ.
Where [5] appears, read: Table 8, larger gene panel, decrease in CJ mRNA levels, read-out: MYB CJ IC50.

Take `Cn1cc2cc(-c3nc4sc(N5CCC56CCNC6)cc4s3)cc(F)c2n1` (centres unmarked) [Compound 200, 5-(5-{1,6-diazaspiro[3.4]octan-1-yl}thieno[2,3-d][1,3]thiazol-2-yl)-7-fluoro-2-methy-lindazole]: the concentration giving a half-maximal response (EC50) with HTT mRNA (setting [1]) and in the assay on MYB mRNA (setting [1]) was greater than 10 µM each time. For the same molecule, the IC50 is greater than 10 µM in the assay on HTT mRNA (setting [2]); greater than 10 µM in the assay with HTT mRNA (setting [3]); greater than 10 µM in the assay on MYB mRNA (setting [4]); greater than 10 µM in the assay on MYB mRNA (setting [5]); greater than 10 µM with Target C mRNA; 1 to 10 µM with SMN2 mRNA.
Consider `Cn1cc2cc(-c3nc4sc(N5CCC56CCNCC6)cc4s3)cc(F)c2n1` [Compound 201, 1-[2-(7-fluoro-2-methylindazol-5-yl)thieno[2,3-d][1,3]thiazol-5-yl]-1,7-diazaspiro[3.5]nonane], for which the concentration for a half-maximal effect (EC50) with HTT mRNA (setting [1]) and in the assay with MYB mRNA (setting [1]) was greater than 10 µM each time. The IC50 with HTT mRNA (setting [2]), in the assay with HTT mRNA (setting [3]), in the assay on MYB mRNA (setting [4]), in the assay with MYB mRNA (setting [5]), in the assay on Target C mRNA and in the assay on SMN2 mRNA was greater than 10 µM each time.
`Cn1cc2cc(-c3nc4sc(N5CCC56CCCNC6)cc4s3)cc(F)c2n1` (centres unmarked) [Compound 202, 1-[2-(7-fluoro-2-methylindazol-5-yl)thieno[2,3-d][1,3]thiazol-5-yl]-1,6-diazaspiro[3.5]nonane]: the EC50 in the assay with HTT mRNA (setting [1]) and with MYB mRNA (setting [1]) was greater than 10 µM in each case. Further, the IC50 in the assay with HTT mRNA (setting [2]) was greater than 10 µM; with HTT mRNA (setting [3]) it was greater than 10 µM; in the assay on MYB mRNA (setting [4]) it was greater than 10 µM; in the assay on MYB mRNA (setting [5]) it was greater than 10 µM; in the assay with Target C mRNA it was 1 to 10 µM; in the assay with SMN2 mRNA, 1 to 10 µM.
For the molecule `CN1CCCC2(CCN2c2cc3sc(-c4cc(F)c5nn(C)cc5c4)nc3s2)C1` (centres unmarked) [Compound 203, 1-[2-(7-fluoro-2-methylindazol-5-yl)thieno[2,3-d][1,3]thiazol-5-yl]-6-methyl-1,6-diazaspiro[3.5]nonane], the concentration giving a half-maximal response (EC50) in the assay with HTT mRNA (setting [1]) and in the assay on MYB mRNA (setting [1]) was greater than 10 µM throughout. Also, the IC50 in the assay on HTT mRNA (setting [2]) was greater than 10 µM; in the assay with HTT mRNA (setting [3]), greater than 10 µM; with MYB mRNA (setting [4]), greater than 10 µM; in the assay with MYB mRNA (setting [5]), greater than 10 µM; in the assay with Target C mRNA it was greater than 10 µM; with SMN2 mRNA it was 1 to 10 µM.
Turning to `CN1CCC2(CC1)CCN2c1cc2sc(-c3cc(F)c4nn(C)cc4c3)nc2s1` [Compound 204, 1-[2-(7-fluoro-2-methylindazol-5-yl)thieno[2,3-d][1,3]thiazol-5-yl]-7-methyl-1,7-diazaspiro [3.5]nonane], the EC50 in the assay on HTT mRNA (setting [1]) and in the assay with MYB mRNA (setting [1]) was 1 to 10 µM each time. Moreover, the IC50 in the assay with HTT mRNA (setting [2]), with HTT mRNA (setting [3]), in the assay with MYB mRNA (setting [4]), in the assay on MYB mRNA (setting [5]), in the assay with Target C mRNA and in the assay with SMN2 mRNA was 1 to 10 µM throughout.
Take `Cn1cc2c(O)c(-c3nc4sc(C5CCNCC5)cc4s3)ccc2n1` [Compound 231, 2-methyl-5-[5-(piperidin-4-yl)thieno[2,3-d][1,3]thiazol-2-yl]indazol-4-ol]: the concentration giving a half-maximal response (EC50) in the assay with HTT mRNA (setting [1]) and in the assay on MYB mRNA (setting [1]) was 1 to 10 µM throughout. Also, the IC50 was 1 to 10 µM in the assay with HTT mRNA (setting [2]); 1 to 10 µM with HTT mRNA (setting [3]); greater than 10 µM with MYB mRNA (setting [4]); 1 to 10 µM in the assay on MYB mRNA (setting [5]); greater than 10 µM with Target C mRNA; 0.1 to 1 µM in the assay with SMN2 mRNA.
As for `Cn1cc2cc(-c3nc4sc(N5CCC6(CCN6)C5)cc4s3)cc(F)c2n1` (centres unmarked) [Compound 233, 5-(5-{1,6-diazaspiro[3.4]octan-6-yl}thieno[2,3-d][1,3]thiazol-2-yl)-7-fluoro-2-methylindazole], the EC50 in the assay on HTT mRNA (setting [1]) and in the assay with MYB mRNA (setting [1]) was 1 to 10 µM in each case. The IC50 in the assay on HTT mRNA (setting [2]) was 1 to 10 µM; in the assay with HTT mRNA (setting [3]) it was 1 to 10 µM; with MYB mRNA (setting [4]), 1 to 10 µM; in the assay on MYB mRNA (setting [5]), 1 to 10 µM; with Target C mRNA it was greater than 10 µM; in the assay with SMN2 mRNA, less than 0.1 µM.
